Measurements published in patent US20040214803A1, “Use of vitamin d3 analogue for the treatment of autoimmune diabetes” (priority 2001, published 2004).

Experiments:
Type in all cases: in vivo, mouse
aortic allografts = experiment: Aortic allograft chronic rejection: intimal thickening / luminal reduction; settings: 0.03 μg/kg p.o. five times per week day 0 to day 30; grafts analysed 60 days after transplantation; vehicle >60%
Procedure: Mice: BALB/c and C57BL/6 (B6) male mice, weighing 22-24 g, were purchased from Charles River Laboratories (Calco, Italy), and kept under specific pathogen-free conditions. B6 (H-2^b) mice were used as donors and BALB/c (H-2^d) as recipients of aortic allografts.
Aorta transplantation: The entire procedure was performed according to Koulack et al. Development of a mouse aortic transplant model of chronic rejection Microsurgery 1995; 16: 110-3, with the modification described by Hong et al. Improved surgical technique for the establishment of a murine model of aortic transplantation. Microsurgery 1998; 18: 368-71. […]
Determination of luminal reduction: Luminal reduction was assessed in 5 μm-thick frozen transverse aortic sections stained with hematoxylin and eosin obtained 60 days post transplantation. To quantify morphological changes in the graft, we used a Leica DC camera (Leica IM 1000 image manager) to acquire the image, and the Leica Qwin software to calculate the luminal reduction percentage. […]
Statistical analysis: Numerical data are expressed as mean ±SD. Data on percent luminal reduction were analysed by a non parametric Students's t-test.
The effect of Compound A in preventing chronic rejection was evaluated using the aortic graft model in the mouse. […] Aortic grafts were analyzed 60 days after transplantation.

[1] = system: pancreatic islets of NOD mice; experiment: Insulitis scoring and immunohistology of pancreas sections
Procedure: Pancreata were snap-frozen in Tissue Tek (Miles Laboratories, Elkhart, Ind.), and 5-μm-thick sections stained with hematoxilin and eosin. Insulitis score was quantified as follows: 0, no insulitis; 1, peri-insulitis; 2, insulitis in <50% of the islet; 3, insulitis in >50% of the islet. A mean score was calculated from 40-50 islets per individual pancreas. In addition, pancreas cryostat sections were stained with biotinylated mAb directed against CD4, CD8, B220, CD11b (all purchased from PharMingen), or CD11c (N418; American Type Culture Collection, Manassas, Va.), followed by streptavidin-peroxidase conjugate. […]
NOD female mice were treated daily with Compound A (0.03 μg/Kg body weight per os) or vehicle from 8 to 12 or 16 weeks of age and glycemia levels were monitored until 38 weeks of age. […]
FIG. 2. […] The results refer to the mean values ±SE of 8 mice/group, except for 1,25-dihydroxy-16,23Z-diene-26,27-hexafluoro-19-nor vitamin D3-treated mice where three mice were scored. The P values were calculated by Mann-Whitney U test. The severity of the infiltrate is shown in the right panel Islets from the same mice were scored for absence of insulitis (□, peri-insulitis (□), moderate insulitis with <50% infiltration of the islets ( ? ) , and severe insulitis, with >50% of infiltration of the islets (▪). […]

[2] = system: vascularized heart allograft; experiment: Vascularized heart allograft survival, C57BL/6 into BALB/c recipients
Source text: Fully vascularized hearts were grafted into the abdomen of recipient mice as described (Corry, R. J., H. J. Winn, and P. S. Russell. Primarily vascularized allografts of hearts in mice. The role of H-2D, H-2K, and non-H-2 antigens in rejection. Transplantation. 1973, 16:343). Graft survival was monitored by palpation and rejection was confirmed by direct graft inspection.

C[C@H](C/C=C\C(O)(C(F)(F)F)C(F)(F)F)C1=CC[C@H]2/C(=C/C=C3C[C@@H](O)C[C@H](O)C3)CCC[C@]12C [Compound A, 1,25-dihydroxy-16,23Z-diene-26,27-hexafluoro-19-nor vitamin D3]
intimal thickening (aortic allografts): < 20% | functional islet β cells (positive staining for insulin) ([1]; at 30 weeks of age, compared to vehicle-treated NOD mice at 30 weeks): more frequent | score and severity of insulitis ([1]; treated 8 to 16 weeks, analysed at 30 weeks of age, compared to 8 weeks old NOD mice): similar | Graft survival (days) Mean ([2]; 0.01 μg/kg po (d-1, 0, +1) then 0.003 μg/kg po (d+2 until d+30)): 12.00 days | Graft survival (days) Mean ([2]; 0.1 μg/kg po (d-1, 0, +1) then 0.03 μg/kg (d+2 until d 15)): 38.20 days
